Experiment [1] addresses T1, purified recombinant human GAC (GLS1) (Homo sapiens, UniProt O94925).
T1 sequence (O94925 55-598 isoform O94925-3 limits assumed): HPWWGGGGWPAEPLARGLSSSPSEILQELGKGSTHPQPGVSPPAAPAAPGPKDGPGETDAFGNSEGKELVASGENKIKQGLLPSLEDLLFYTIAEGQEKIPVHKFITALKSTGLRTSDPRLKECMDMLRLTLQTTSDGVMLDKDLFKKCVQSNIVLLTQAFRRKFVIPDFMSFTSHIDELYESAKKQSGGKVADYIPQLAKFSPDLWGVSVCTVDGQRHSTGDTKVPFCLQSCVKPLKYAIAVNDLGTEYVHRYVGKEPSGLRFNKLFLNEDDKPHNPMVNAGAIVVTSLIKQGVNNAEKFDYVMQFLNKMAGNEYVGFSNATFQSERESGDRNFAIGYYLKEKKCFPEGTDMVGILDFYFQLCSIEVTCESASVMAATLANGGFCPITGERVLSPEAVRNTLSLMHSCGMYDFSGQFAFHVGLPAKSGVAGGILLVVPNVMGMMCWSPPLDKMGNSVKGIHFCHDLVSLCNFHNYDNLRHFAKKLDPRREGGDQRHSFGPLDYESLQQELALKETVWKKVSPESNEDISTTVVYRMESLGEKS
The experiment in a line: GLS1 Enzymatic Activity Assay (dual-coupled enzymatic assay). The experiment is classed as biochemical. The procedure, abridged: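 Recombinant human GAC (2 nM) preincubated with 50 mM potassium phosphate, then inhibitor (10 min each, RT); 1 mM glutamine, pH 7.4 Hepes buffer, 1% DMSO. Glutamate coupled via glutamate oxidase/HRP to resorufin (Ex 530/Em 590), kinetic or 20-min endpoint; IC50 by four-parameter logistic fit.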

The subject of the next experiment is A549 cells. The experiment in a line: Proliferation Assay (A549 cell viability, Cell Titer Fluor). The note with it: Homo sapiens, 72 hours. It counts as cell-based. The procedure, abridged:
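Compound was added to A549 cells (1000/well, pre-grown 24 h in RPMI 1640 plus 10% dialyzed FBS) at 0.5% DMSO and left 72 h under 37 °C, 5% CO2, ambient O2. Live-cell fluorescence (Cell Titer Fluor) gave the EC50.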

Molecules are shown by their SMILES. pEC50, pIC50: −log10 of the molar value.

As usually defined, the pIC50 is the IC50 on a negative log10 scale, so that one unit is a factor of ten. Usually pEC50 stands for −log10 of the EC50, conventionally taken in molar units.

In the case of `Cc1ccc(CNC(=O)c2cn(CCCCc3cc4cc(-c5ccccc5)[nH]c4nn3)nn2)cn1` [Example 209, N-[(6-methylpyridin-3-yl)methyl]-1-(4-{6-phenyl-7H-pyrrolo[2,3-c]pyridazin-3-yl}butyl)-1H-1,2,3-triazole-4-carboxamide], the pIC50 in experiment [1] is greater than 7.00. Further, in the experiment with A549 cells, the pEC50 is 6.30 to 7.00.
The like results for `O=C(NCc1cc(C(F)(F)F)ccn1)c1cn(CCCCc2cc3c(C4CC4)c(C4CC4)[nH]c3nn2)nn1` [Example 210, 1-(4-{5,6-dicyclopropyl-7H-pyrrolo[2,3-c]pyridazin-3-yl}butyl)-N-{[4-(trifluoromethyl)pyridin-2-yl]methyl}-1H-1,2,3-triazole-4-carboxamide] were, in that order, greater than 7.00 and 6.30 to 7.00.
In the same order, the values of `O=C(NCc1cccc(C(F)(F)F)n1)c1cn(CCCCc2cc3c(C4CC4)c(C4CC4)[nH]c3nn2)nn1` [Example 211, 1-(4-{5,6-dicyclopropyl-7H-pyrrolo[2,3-c]pyridazin-3-yl}butyl)-N-{[6-(trifluoromethyl)pyridin-2-yl]methyl}-1H-1,2,3-triazole-4-carboxamide] are greater than 7.00 and 6.30 to 7.00.
In the same order, the values of `O=C(NCc1cncc(C(F)(F)F)c1)c1cn(CCCCc2cc3c(C4CC4)c(C4CC4)[nH]c3nn2)nn1` [Example 212, 1-(4-{5,6-dicyclopropyl-7H-pyrrolo[2,3-c]pyridazin-3-yl}butyl)-N-{[5-(trifluoromethyl)pyridin-3-yl]methyl}-1H-1,2,3-triazole-4-carboxamide] are greater than 7.00 and 6.30 to 7.00.
In the case of `CC(C)(O)c1ccc(CNC(=O)c2cn(CCCCc3cc4c(C5CC5)c(C5CC5)[nH]c4nn3)nn2)cn1` [Example 213, 1-(4-{5,6-dicyclopropyl-7H-pyrrolo[2,3-c]pyridazin-3-yl}butyl)-N-{[6-(2-hydroxypropan-2-yl)pyridin-3-yl]methyl}-1H-1,2,3-triazole-4-carboxamide], the pIC50 in experiment [1] was greater than 7.00. The same compound had a pEC50 with A549 cells of 6.30 to 7.00.
Take `O=C(NCc1ccc(CF)nc1)c1cn(CCCCc2cc3c(C4CC4)c(C4CC4)[nH]c3nn2)nn1` [Example 214, 1-(4-{5,6-dicyclopropyl-7H-pyrrolo[2,3-c]pyridazin-3-yl}butyl)-N-{[6-(fluoromethyl)pyridin-3-yl]methyl}-1H-1,2,3-triazole-4-carboxamide]: the pIC50 in experiment [1] was greater than 7.00. Further, in the experiment on A549 cells, the pEC50 is 6.30 to 7.00.
In the case of `Cc1ccc(CNC(=O)c2cn(CCCCc3cc4cc(-c5ccccc5C(F)(F)F)[nH]c4nn3)nn2)cn1` [Example 215, N-[(6-methylpyridin-3-yl)methyl]-1-(4-{6-[2-(trifluoromethyl)phenyl]-7H-pyrrolo[2,3-c]pyridazin-3-yl}butyl)-1H-1,2,3-triazole-4-carboxamide], in experiment [1], the pIC50 was greater than 7.00. In addition, the pEC50 in the experiment with A549 cells was 6.30 to 7.00.
On to `O=C(NCc1cc(C(F)(F)F)ccn1)c1cn(CCCCc2cc3c(C4CC4)c(C4CCCC4)[nH]c3nn2)nn1` [Example 216, 1-(4-{6-cyclopentyl-5-cyclopropyl-7H-pyrrolo[2,3-c]pyridazin-3-yl}butyl)-N-{[4-(trifluoromethyl)pyridin-2-yl]methyl}-1H-1,2,3-triazole-4-carboxamide], for which the pIC50 in experiment [1] was greater than 7.00. In the experiment with A549 cells, this compound gave a pEC50 of 6.30 to 7.00.
In the same order, the values of `O=C(NCc1ccc(C(F)(F)F)nc1)c1cn(CCCCc2cc3c(-c4ccc(F)cc4F)c(C4CC4)[nH]c3nn2)nn1` [Example 217, 1-(4-(6-cyclopropyl-5-(2,4-difluorophenyl)-7H-pyrrolo[2,3-c]pyridazin-3-yl)butyl)-N-((6-(trifluoromethyl)pyridin-3-yl)methyl)-1H-1,2,3-triazole-4-carboxamide] are greater than 7.00 and 6.30 to 7.00.
Take `O=C(NCc1ccc(C(F)(F)F)cn1)c1cn(CCCCc2cc3c(-c4ccc(F)cc4F)c(C4CC4)[nH]c3nn2)nn1` [Example 218, 1-{4-[6-cyclopropyl-5-(2,4-difluorophenyl)-7H-pyrrolo[2,3-c]pyridazin-3-yl]butyl}-N-{[5-(trifluoromethyl)pyridin-2-yl]methyl}-1H-1,2,3-triazole-4-carboxamide]: the pIC50 in experiment [1] is greater than 7.00. In addition, the pEC50 in the experiment with A549 cells was 6.30 to 7.00.
The like results for `O=C(NCc1cc(C(F)(F)F)ccn1)c1cn(CCCCc2cc3c(-c4ccc(F)cc4F)c(C4CC4)[nH]c3nn2)nn1` [Example 219, 1-{4-[6-cyclopropyl-5-(2,4-difluorophenyl)-7H-pyrrolo[2,3-c]pyridazin-3-yl]butyl}-N-{[4-(trifluoromethyl)pyridin-2-yl]methyl}-1H-1,2,3-triazole-4-carboxamide] were, in that order, greater than 7.00 and greater than 7.00.
The like results for `O=C(NCc1cccc(C(F)(F)F)n1)c1cn(CCCCc2cc3c(-c4ccc(F)cc4F)c(C4CC4)[nH]c3nn2)nn1` [Example 220, 1-{4-[6-cyclopropyl-5-(2,4-difluorophenyl)-7H-pyrrolo[2,3-c]pyridazin-3-yl]butyl}-N-{[6-(trifluoromethyl)pyridin-2-yl]methyl}-1H-1,2,3-triazole-4-carboxamide] were, in that order, greater than 7.00 and 6.30 to 7.00.
With `O=C(NCc1cncc(C(F)(F)F)c1)c1cn(CCCCc2cc3c(-c4ccc(F)cc4F)c(C4CC4)[nH]c3nn2)nn1` [Example 221, 1-{4-[6-cyclopropyl-5-(2,4-difluorophenyl)-7H-pyrrolo[2,3-c]pyridazin-3-yl]butyl}-N-{[5-(trifluoromethyl)pyridin-3-yl]methyl}-1H-1,2,3-triazole-4-carboxamide], the pIC50 in experiment [1] was greater than 7.00. The compound also showed a pEC50 in the experiment on A549 cells greater than 7.00.
As to `O=C(NCc1ccc(CF)nc1)c1cn(CCCCc2cc3c(-c4ccc(F)cc4F)c(C4CC4)[nH]c3nn2)nn1` [Example 222, 1-{4-[6-cyclopropyl-5-(2,4-difluorophenyl)-7H-pyrrolo[2,3-c]pyridazin-3-yl]butyl}-N-{[6-(fluoromethyl)pyridin-3-yl]methyl}-1H-1,2,3-triazole-4-carboxamide], the pIC50 in experiment [1] is greater than 7.00. This compound also gave a pEC50 in the experiment with A549 cells of 6.30 to 7.00.
In the same order, the values of `O=C(NCc1cc(OC(F)(F)F)ccc1F)c1cn(CCCCc2cc3cc(C4CN(C(=O)C5CCC5)C4)[nH]c3nn2)nn1` [Example 223, 1-{4-[6-(1-cyclobutanecarbonylazetidin-3-yl)-7H-pyrrolo[2,3-c]pyridazin-3-yl]butyl}-N-{[2-fluoro-5-(trifluoromethoxy)phenyl]methyl}-1H-1,2,3-triazole-4-carboxamide] are greater than 7.00 and greater than 7.00.
Consider `O=C(NCc1cc(OC(F)(F)F)ccc1F)c1cn(CCCCc2cc3cc(C4CN(C(=O)C5CC5)C4)[nH]c3nn2)nn1` [Example 224, 1-{4-[6-(1-cyclopropanecarbonylazetidin-3-yl)-7H-pyrrolo[2,3-c]pyridazin-3-yl]butyl}-N-{[2-fluoro-5-(trifluoromethoxy)phenyl]methyl}-1H-1,2,3-triazole-4-carboxamide], for which the pIC50 in experiment [1] is greater than 7.00. In the experiment with A549 cells, this compound had a pEC50 of 6.30 to 7.00.
For the compound `O=C(NCc1cc(OC(F)(F)F)ccc1F)c1cn(CCCCc2cc3cc(C4CN(C(=O)C5(C(F)(F)F)CC5)C4)[nH]c3nn2)nn1` [Example 225, N-{[2-fluoro-5-(trifluoromethoxy)phenyl]methyl}-1-[4-(6-{1-[1-(trifluoromethyl)cyclopropane-carbonyl]azetidin-3-yl}-7H-pyrrolo[2,3-c]pyridazin-3-yl)butyl]-1H-1,2,3-triazole-4-carboxamide], in experiment [1], the negative logarithm of the IC50 (pIC50) was greater than 7.00. Besides, the pEC50 in the experiment with A549 cells is greater than 7.00.
Regarding `O=C(NCc1cc(OC(F)(F)F)ccc1F)c1cn(CCCCc2cc3cc(C4CN(C(=O)C5CC(F)(F)C5)C4)[nH]c3nn2)nn1` [Example 226, 1-(4-{6-[1-(3,3-difluorocyclobutanecarbonyl)azetidin-3-yl]-7H-pyrrolo[2,3-c]pyridazin-3-yl}butyl)-N-{[2-fluoro-5-(trifluoromethoxy)phenyl]methyl}-1H-1,2,3-triazole-4-carboxamide], in experiment [1], the pIC50 is greater than 7.00. The negative logarithm of the EC50 (pEC50) in the experiment with A549 cells was 6.30 to 7.00.
In the same order, the values of `CC(C)(F)C(=O)N1CC(c2cc3cc(CCCCn4cc(C(=O)NCc5cc(OC(F)(F)F)ccc5F)nn4)nnc3[nH]2)C1` [Example 227, 1-(4-{6-[1-(2-fluoro-2-methylpropanoyl)azetidin-3-yl]-7H-pyrrolo[2,3-c]pyridazin-3-yl}butyl)-N-{[2-fluoro-5-(trifluoromethoxy)phenyl]methyl}-1H-1,2,3-triazole-4-carboxamide] are greater than 7.00 and greater than 7.00.
In the same order, the values of `COc1ccccc1-c1cc2cc(CCCCn3cc(C(=O)NCc4ccc(C)nc4)nn3)nnc2[nH]1` [Example 228, 1-{4-[6-(2-methoxyphenyl)-7H-pyrrolo[2,3-c]pyridazin-3-yl]butyl}-N-[(6-methylpyridin-3-yl)methyl]-1H-1,2,3-triazole-4-carboxamide] are greater than 7.00 and greater than 7.00.
